Patent US12180508B2, “Method of preparing in vitro-matured human intestinal organoids and use thereof” (KOREA RESEARCH INSTITUTE OF BIOSCIENCE AND BIOTECHNOLOGY, priority 2018, dated 2024)
Where two headings read alike, the source gives them in different places. One block for each molecule: values may come before it.

Tests used:
CFTR = target: T1, CFTR (Homo sapiens, UniProt P13569); test: Forskolin-induced organoid swelling assay (CFTR function); assay type: cell-based; settings: mature organoids, forskolin 25 uM, 120 minutes
T1 construct: To examine the function of CFTR present in mature intestine epithelial cells in organoid models; endogenous in cells; host or cells: hPSC-derived human intestinal organoids (control, co-cultured with Jurkat T cells, or IL-2-treated)
Protocol: To examine the function of CFTR present in mature intestine epithelial cells in organoid models, forskolin-induced organoid swelling assay was performed. Control and co-cultured or IL-2-treated hIOs (n=4) were treated with forskolin (25 uM, Merckmillopore), and then morphological observation was performed for 120 min at 20 min intervals through live imaging function of a microscope (IX83, Olympus). CFTR inhibitors (CFTRinh172, GlyH101) were co-treated, and morphological observation was performed for the same time. The size of organoids was calculated every hour, and mean values thereof were used to plot a graph.

p-STAT3 (Y705) = test: Phospho-STAT3 immunostaining of hIOs; assay type: cell-based, human; settings: IL-2 treated Mat-hIOs; Stattic 1 μM or S3I-201 10 μM
Protocol: (§1) An immunofluorescence analysis was performed according to a known method (Kwak et al., Biochemical and biophysical research communications 457, 554-560, 2015). In detail, hPSCs and definitive endodermal cells were fixed in 4% paraformaldehyde (PFA) and then permeabilized with PBS containing 0.1% Triton X-100.
(§2) hIOs and tissues were fixed, cryo-protected in sucrose, and frozen using an optimal-cutting-temperature (OCT) compound (Sakura Finetek, Tokyo, Japan). Then, frozen sections were cut at a thickness of 10-20 μm using a cryostat microtome at −20° C. and permeabilized with PBS containing 0.1% Triton X-100 for immunofluorescence analysis.
(§3) In detail, after being blocked with 4% BSA, cells were incubated with primary antibodies at 4° C. overnight, and then incubated with secondary antibodies for 1 hr at room temperature. The used primary antibodies are as in Table 2. Paraffin sections were deparaffinized, subjected to antigen retrieval, and stained in a similar manner to OCT sections. DAPI was added to visualize nuclei. Slides were examined with an Axiovert 200M microscope (Carl Zeiss, Gottingen, Germany) or a fluorescence microscope (IX51, Olympus, Japan).

hPSC-derived hIOs = test: Growth / size (surface area, budding) of hPSC-derived hIOs; assay type: cell-based, human; settings: for stimulation of IL-2 on hIO growth in presence of inhibitor: with IL-2, S31-201 10 μM, Stattic 1 μM, Rapamycin 10 nM; for growth of hIOs with many crypt-like budding structures: treatment with STAT3 activators
Protocol: To estimate the size of hIOs, surface areas of horizontal cross-sections of hIOs were measured.

hIOs [1] = test: qPCR of intestinal maturation markers in hIOs; assay type: cell-based, human; settings: colivelin treatment compared with control hIOs
Protocol: Total RNA was extracted from cells using an RNeasy Kit (Qiagen), and reverse-transcribed using a Superscript III cDNA synthesis kit (Invitrogen). qRT-PCR was performed by a method disclosed in a 7500 Fast Real-time PCR system (Applied Biosystems, Foster City, CA, USA) (Cho et al., Oncotarget 6, 23837-23844, 2015). All experiments were performed in triplicate, and CT value of each target gene was calculated using a software provided by the manufacturer. Nucleotide sequences of the used primers are as in Table 1.

hIOs [2] = test: Immunofluorescence staining of marker proteins in hIOs; assay type: cell-based, human; settings: colivelin treatment
Protocol: as §1, §2, §3

[3] = target: P-glycoprotein (P-gp)/MDR1 (Homo sapiens, UniProt P08183); settings: paclitaxel 10 μM basolateral, 2 hr incubation
Sequence of P-glycoprotein (P-gp)/MDR1 (P08183 whole entry): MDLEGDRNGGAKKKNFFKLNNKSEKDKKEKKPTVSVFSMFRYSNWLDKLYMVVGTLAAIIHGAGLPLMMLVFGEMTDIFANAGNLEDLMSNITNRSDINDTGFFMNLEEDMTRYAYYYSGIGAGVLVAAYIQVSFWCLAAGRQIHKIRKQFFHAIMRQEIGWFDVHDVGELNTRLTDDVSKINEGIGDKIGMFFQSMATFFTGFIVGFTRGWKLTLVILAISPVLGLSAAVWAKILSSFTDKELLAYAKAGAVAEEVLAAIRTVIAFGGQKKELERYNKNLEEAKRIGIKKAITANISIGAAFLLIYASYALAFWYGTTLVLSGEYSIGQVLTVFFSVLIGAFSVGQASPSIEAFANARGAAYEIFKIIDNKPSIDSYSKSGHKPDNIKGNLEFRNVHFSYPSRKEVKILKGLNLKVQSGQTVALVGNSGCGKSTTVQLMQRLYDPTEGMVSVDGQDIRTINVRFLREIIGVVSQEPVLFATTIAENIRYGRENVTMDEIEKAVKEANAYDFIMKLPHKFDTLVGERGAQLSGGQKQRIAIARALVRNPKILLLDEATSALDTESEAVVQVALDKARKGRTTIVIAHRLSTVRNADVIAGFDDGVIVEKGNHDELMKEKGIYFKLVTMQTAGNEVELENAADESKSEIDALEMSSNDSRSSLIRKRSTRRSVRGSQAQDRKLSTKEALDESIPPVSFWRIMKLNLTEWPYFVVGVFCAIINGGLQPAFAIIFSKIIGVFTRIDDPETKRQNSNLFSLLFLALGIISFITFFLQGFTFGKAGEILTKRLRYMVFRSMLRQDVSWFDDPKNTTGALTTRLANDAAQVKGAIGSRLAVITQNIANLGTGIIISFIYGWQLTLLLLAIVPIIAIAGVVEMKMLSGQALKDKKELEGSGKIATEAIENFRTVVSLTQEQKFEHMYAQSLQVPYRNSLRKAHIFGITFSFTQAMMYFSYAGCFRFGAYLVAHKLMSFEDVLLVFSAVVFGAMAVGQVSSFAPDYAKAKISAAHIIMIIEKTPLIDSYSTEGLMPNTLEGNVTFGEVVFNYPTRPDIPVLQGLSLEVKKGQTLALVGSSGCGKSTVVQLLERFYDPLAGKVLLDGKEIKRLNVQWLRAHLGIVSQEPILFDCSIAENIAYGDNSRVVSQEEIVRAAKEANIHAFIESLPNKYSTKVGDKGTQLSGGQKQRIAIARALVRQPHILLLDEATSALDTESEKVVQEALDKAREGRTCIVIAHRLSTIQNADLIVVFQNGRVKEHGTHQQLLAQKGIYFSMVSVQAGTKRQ

T1 sequence (P13569 whole entry): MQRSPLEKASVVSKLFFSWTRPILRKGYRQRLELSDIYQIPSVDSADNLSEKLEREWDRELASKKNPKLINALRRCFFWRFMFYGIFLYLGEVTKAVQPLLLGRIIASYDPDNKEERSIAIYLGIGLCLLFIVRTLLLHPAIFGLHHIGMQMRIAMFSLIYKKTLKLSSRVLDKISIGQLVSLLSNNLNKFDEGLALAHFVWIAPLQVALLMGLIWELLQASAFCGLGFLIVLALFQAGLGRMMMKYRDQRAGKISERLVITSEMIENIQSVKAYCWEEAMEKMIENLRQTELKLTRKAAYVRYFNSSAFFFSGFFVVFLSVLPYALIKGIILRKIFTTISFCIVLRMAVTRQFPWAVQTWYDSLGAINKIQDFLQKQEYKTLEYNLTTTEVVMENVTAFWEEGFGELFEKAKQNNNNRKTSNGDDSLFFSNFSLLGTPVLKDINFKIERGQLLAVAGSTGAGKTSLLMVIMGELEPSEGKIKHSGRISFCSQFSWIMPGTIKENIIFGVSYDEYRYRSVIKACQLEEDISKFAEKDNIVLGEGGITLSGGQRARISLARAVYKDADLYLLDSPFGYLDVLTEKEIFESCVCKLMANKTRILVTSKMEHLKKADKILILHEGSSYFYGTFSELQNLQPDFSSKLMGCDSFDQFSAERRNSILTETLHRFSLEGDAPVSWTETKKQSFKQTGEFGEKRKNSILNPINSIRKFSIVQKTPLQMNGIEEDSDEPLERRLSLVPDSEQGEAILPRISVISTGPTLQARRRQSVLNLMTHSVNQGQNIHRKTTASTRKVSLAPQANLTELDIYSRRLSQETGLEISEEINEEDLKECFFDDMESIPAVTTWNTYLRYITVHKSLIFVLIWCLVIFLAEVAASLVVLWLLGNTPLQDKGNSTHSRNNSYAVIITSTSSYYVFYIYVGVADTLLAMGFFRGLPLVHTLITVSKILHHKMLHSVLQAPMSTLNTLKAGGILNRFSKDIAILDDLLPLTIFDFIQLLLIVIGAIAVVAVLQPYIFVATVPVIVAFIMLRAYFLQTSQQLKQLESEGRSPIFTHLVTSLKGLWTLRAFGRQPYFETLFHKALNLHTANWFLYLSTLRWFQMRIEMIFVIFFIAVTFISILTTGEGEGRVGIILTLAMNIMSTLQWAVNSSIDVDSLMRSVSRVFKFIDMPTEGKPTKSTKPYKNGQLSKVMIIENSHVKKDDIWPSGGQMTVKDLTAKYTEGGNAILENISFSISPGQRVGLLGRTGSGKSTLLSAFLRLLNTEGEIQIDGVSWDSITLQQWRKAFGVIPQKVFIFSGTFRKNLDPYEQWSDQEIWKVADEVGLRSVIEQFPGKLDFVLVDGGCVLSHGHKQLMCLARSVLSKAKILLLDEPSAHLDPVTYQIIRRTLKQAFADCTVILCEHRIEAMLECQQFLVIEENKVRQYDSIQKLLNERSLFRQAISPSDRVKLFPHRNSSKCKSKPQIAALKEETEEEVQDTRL

Molecule: O=C(O)c1ccc(/C=C2\SC(=S)N(c3cccc(C(F)(F)F)c3)C2=O)cc1 [CFTRinh172]
forskolin-induced swelling effect under CFTR inhibitor (CFTR): completely blocked

Molecule: Cc1ccc(S(=O)(=O)OCC(=O)Nc2ccc(C(=O)O)c(O)c2)cc1 [S3I-201]
phosphorylation of STAT3 at tyrosine 705 (Y705) (p-STAT3 (Y705)): blocked
stimulation of IL-2 on hIO growth in presence of inhibitor (hPSC-derived hIOs): prevented

Molecule: O=[N+]([O-])c1ccc2c(c1)S(=O)(=O)C=C2 [Stattic]
phosphorylation of STAT3 at tyrosine 705 (Y705) (p-STAT3 (Y705)): blocked
stimulation of IL-2 on hIO growth in presence of inhibitor (hPSC-derived hIOs): prevented

B1: IL-22: another known STAT3 activator, cytokine (protein, UniProt Q9GZX6 34-179, looked up)
Interleukin-22: APISSHCRLDKSNFQQPYITNRTFMLAKEASLADNNTDVRLIGEKLFHGVSMSERCYLMKQVLNFTLEEVLFPQSDRFQPYMQEVVPFLARLSNRLSTCHIEGDDLHIQRNVQKLKDTVKKLGESGEIKAIGELDLLFMSLRNACI
growth of hIOs with many crypt-like budding structures (hPSC-derived hIOs): promoted the growth

Continued, in another order:

forskolin-induced swelling effect under CFTR inhibitor (CFTR): completely blocked
Molecule: O=C(CNc1ccc2ccccc2c1)N/N=C/c1cc(Br)c(O)c(Br)c1O [GlyH101]

protein expression of Ki-67, OLFM4, MUC13 and KRT20 (hIOs [2]): increased
Molecule: Colivelin
expression of intestinal maturation markers (hIOs [1]): increased
growth of hIOs with many crypt-like budding structures (hPSC-derived hIOs): promoted the growth
size of hIO (hPSC-derived hIOs; various concentrations of colivelin): increased

concentration of paclitaxel at the apical side, increase compared with control hIOs ([3]; IL-2-treated hIOs): ~3 fold
concentration of paclitaxel at the apical side, increase compared with control hIOs ([3]; co-cultured hIOs): approximately 2.3 fold
Molecule: CC(=O)O[C@H]1C(=O)[C@@]2(C)[C@H]([C@H](OC(=O)c3ccccc3)[C@]3(O)C[C@H](OC(=O)[C@H](O)[C@@H](NC(=O)c4ccccc4)c4ccccc4)C(C)=C1C3(C)C)[C@]1(OC(C)=O)CO[C@@H]1C[C@@H]2O [paclitaxel]
